The values that follow come from patent US7998965B2, “Glutamate aggrecanase inhibitors” (Wyeth LLC, priority 2005, dated 2011).

Test [1] addresses T1, purified recombinant human Aggrecanase-2 (Ag2t-Phe628-Strep) (Homo sapiens, UniProt Q9UNA0).
T1 construct: the form used is denoted as Ag2t-Phe628-Strep (MW=41,737)
T1 sequence (Q9UNA0 262-628): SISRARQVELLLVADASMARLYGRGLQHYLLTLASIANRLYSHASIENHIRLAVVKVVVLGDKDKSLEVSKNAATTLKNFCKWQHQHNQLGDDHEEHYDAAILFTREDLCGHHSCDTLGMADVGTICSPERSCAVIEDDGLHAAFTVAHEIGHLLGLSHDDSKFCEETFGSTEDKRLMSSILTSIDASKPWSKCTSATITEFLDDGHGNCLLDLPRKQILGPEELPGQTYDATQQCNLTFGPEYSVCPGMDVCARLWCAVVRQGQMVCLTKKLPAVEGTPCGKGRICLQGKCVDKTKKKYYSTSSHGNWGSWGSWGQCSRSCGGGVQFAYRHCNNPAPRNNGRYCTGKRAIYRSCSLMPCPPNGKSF
As to the kind of experiment: In vitro fluorescence screen for Aggrecanase-2 inhibitors. The format is biochemical. The conditions noted are these: Table 1; read-out: Agg 2 IC50.

For test [2], the target named is T2, recombinant human catalytic domain of MMP-13 (Homo sapiens, UniProt P45452).
T2 construct: catalytic domain of MMP-13 (165 amino acids, residues 104-268, 19 kDa)
As to the kind of experiment: In vitro fluorescence assay of MMP-13 activity. The format is biochemical. The conditions noted are these: Table 1; unit inferred.

Test [3] has as its target T3, MMP-1 (Homo sapiens, UniProt P03956).
T3 sequence (P03956 100-469): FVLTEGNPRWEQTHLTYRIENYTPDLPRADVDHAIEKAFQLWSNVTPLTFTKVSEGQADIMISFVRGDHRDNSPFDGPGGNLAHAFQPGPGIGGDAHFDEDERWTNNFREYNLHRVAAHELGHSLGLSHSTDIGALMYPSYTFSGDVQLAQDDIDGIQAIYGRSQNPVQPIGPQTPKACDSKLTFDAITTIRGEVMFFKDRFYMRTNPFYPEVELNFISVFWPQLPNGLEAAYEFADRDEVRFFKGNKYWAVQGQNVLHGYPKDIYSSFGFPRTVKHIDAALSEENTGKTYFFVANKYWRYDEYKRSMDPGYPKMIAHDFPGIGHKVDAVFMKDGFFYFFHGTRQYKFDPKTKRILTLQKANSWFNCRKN
As to the kind of experiment: MMP-1 of Table 1. The note with it: unit inferred. The format is biochemical.

Test [4] relates to bovine articular cartilage treated with Interleukin 1 alpha (IL-1α). As to the kind of experiment: Bovine articular cartilage explant cultures: inhibition of degradation of proteoglycan. The note with it: inhibitory effect expressed as percentage, concentration not printed. The format is cell-based. Put shortly: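 Bovine metacarpal cartilage discs (6 mm), equilibrated in serum-free DMEM-based medium, were treated with 5 ng/ml IL-1 plus compound (working solutions 0.1-10 μg/ml), with medium collected and replaced on days 1, 2 and 3. Released proteoglycan was measured by DMMB absorbance at 520 nm against chondroitin sulphate standards, expressed as μg per mg cartilage, and inhibition given as percentage.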

Test [5] concerns the target T4, recombinant human MMP-2 (Homo sapiens, UniProt P08253).
T4 sequence (P08253 110-660): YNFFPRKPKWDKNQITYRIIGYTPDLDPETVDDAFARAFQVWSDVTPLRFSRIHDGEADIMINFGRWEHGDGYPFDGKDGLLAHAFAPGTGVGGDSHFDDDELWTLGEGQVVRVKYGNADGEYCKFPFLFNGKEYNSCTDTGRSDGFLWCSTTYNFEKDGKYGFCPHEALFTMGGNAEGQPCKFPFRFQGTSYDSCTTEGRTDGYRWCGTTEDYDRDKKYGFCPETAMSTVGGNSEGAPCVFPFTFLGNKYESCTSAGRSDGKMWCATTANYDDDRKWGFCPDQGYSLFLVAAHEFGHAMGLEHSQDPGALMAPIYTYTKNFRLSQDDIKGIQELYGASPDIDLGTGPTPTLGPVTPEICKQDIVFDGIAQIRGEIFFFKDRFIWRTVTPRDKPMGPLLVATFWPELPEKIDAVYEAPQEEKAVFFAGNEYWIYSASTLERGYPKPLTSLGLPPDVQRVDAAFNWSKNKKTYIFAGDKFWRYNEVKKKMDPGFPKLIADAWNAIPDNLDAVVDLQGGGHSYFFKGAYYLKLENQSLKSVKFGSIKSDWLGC
As to the kind of experiment: In vitro fluorescence assay of MMP-2 activity.
Experimental: A continuous assay was used in which the substrate is a synthetic peptide containing a fluorescent group (7-methoxycoumarin; Mca), which is quenched by energy transfer to a 2,4-dinitrophenyl group. […] The source of enzyme in the assay was the recombinant human MMP-2 (66 kDa; Oncogene Research Products (catalog number PF023 from Calbiochem)). The substrate used was the peptide Mca-PQGL-(3-[2,4-dinitrophenyl]-L-2,3-diaminopropionyl)-AR-OH. The assay buffer consisted of 50 mM Hepes (pH 7.4), 100 mM NaCl, 5 mM CaCl2, and 0.005% Brij-35. […] The plates were then incubated at 30° C. for 15 minutes. The enzymatic reactions were initiated by adding the substrate to a final concentration of 20 μM, and mixing 10 times with a pipette. The final DMSO concentration in the assay was 6.0%.
Plots of the inhibitor concentration vs. the percent inhibition were fit to the following equation: y=(a−d)/[^1+(x/c)^b]+d, a general sigmoidal curve with Hill slope, a to d. x is the inhibitor concentration under test. y is the percent inhibition. a is the limiting response as x approaches zero. As x increases without bound, y tends toward its limit d. c is the inflection point (IC50) for the curve. That is, y is halfway between the lower and upper asymptotes when x=c. b is the slope factor or Hill coefficient.

The term IC50 denotes the concentration at which inhibition is half-maximal. For the compound `CC(C)(Cc1ccc(F)cc1)NC(=O)[C@H](CCC(=O)O)NC(=O)c1ccc(-c2ccccc2)cc1` [Example 8OO, N^2-(1,1′-biphenyl-4-ylcarbonyl)-N^1-[2-(4-fluorophenyl)-1,1-dimethylethyl]-L-α-glutamine], the IC50 in test [1] is 0.044 µM; in test [2], > 50 µM; in test [3] it was > 200 µM; in test [5], > 20 µM. Further, the bovine was 87% in test [4] (Table 1, first of two columns headed bovine) and 40% in test [4] (Table 1, second of two columns headed bovine).
